{"source": "PubChem BioAssay AID1745844", "about": "(Carcinogenic Potency Database (CPDB), 2022)", "system": "rodent lifetime carcinogenesis bioassay, tumor incidence TD50", "experiment": "chronic cancer bioassays in animals – CPDB, compiled studies (AID 1745844)", "details": "in feed, dosed 78 weeks", "note": "Activity calls are given as the source filed them. The rule behind the calls is not given here.", "data": [{"smiles": "O=C(Nc1ccc([N+](=O)[O-])cc1Cl)c1cc(Cl)ccc1O", "values": [{"measurement": "carcinogen call", "setting": "mouse, strain B6C3F1, females, site: any site (literature study), lesion: several types, types named in the paper, study length 91 weeks", "result": "negative (inactive)"}, {"measurement": "TD50", "setting": "mouse, strain B6C3F1, males, site: any site (literature study), lesion: several types, types named in the paper, study length 91 weeks", "result": 175, "unit": "mg/kg/day"}, {"measurement": "TD50", "setting": "rat, strain Osborne-Mendel, females, site: any site (literature study), lesion: several types, types named in the paper, study length 110 weeks", "result": 2070, "unit": "mg/kg/day"}, {"measurement": "TD50", "setting": "rat, strain Osborne-Mendel, females, site: liver, lesion: hepatocellular adenoma + hepatocellular carcinoma + neoplastic nodule, study length 110 weeks", "result": 13300, "unit": "mg/kg/day"}, {"measurement": "TD50", "setting": "rat, strain Osborne-Mendel, females, site: thyroid gland, lesion: c-cell adenoma + c-cell carcinoma, study length 110 weeks", "result": 6670, "unit": "mg/kg/day"}, {"measurement": "TD50", "setting": "rat, strain Osborne-Mendel, females, site: uterus, lesion: endometrial stromal polyp, study length 110 weeks", "result": "5060 mg/kg/day (inactive)"}, {"measurement": "carcinogen call", "setting": "rat, strain Osborne-Mendel, males, site: any site (literature study), lesion: several types, types named in the paper, study length 110 weeks", "result": "negative (inactive)"}]}]}
